Measurements published in ChEMBL document CHEMBL1817642, “Stereoselective synthesis and antimicrobial activity of steroidal C-20 tertiary alcohols with thiazole/pyridine side chain” (2011).
≈ marks a conversion by molar mass, not a printed value.

Columns and labels:
Assay type in all cases: functional
Staphylococcus aureus = test: Antibacterial activity against Staphylococcus aureus NCIM 2122 after 24 hrs by NCCLS method; settings: NCIM 2122, 24 h
Yarrowia lipolytica = test: Antifungal activity against Yarrowia lipolytica isolate NCL4 after 24 hrs by broth dilution method; settings: isolate NCL4, 24 h
Fusarium oxysporum = test: Antifungal activity against Fusarium oxysporum isolate NCL5 after 48 hrs by broth dilution method; settings: isolate NCL5, 48 h
Cryptococcus neoformans = test: Antifungal activity against Cryptococcus neoformans isolate NCL2 after 72 hrs by broth dilution method; settings: isolate NCL2, 72 h
Candida albicans = test: Antifungal activity against Candida albicans isolate NCL1 after 48 hrs by broth dilution method; settings: isolate NCL1, 48 h
Escherichia coli = test: Antibacterial activity against Escherichia coli NCIM 2574 after 24 hrs by NCCLS method; settings: NCIM 2574, 24 h
Benjaminiella poitrasii = test: Antifungal activity against Benjaminiella poitrasii isolate NCL3 after 24 hrs by M38-P broth dilution method; settings: isolate NCL3, 24 h

SMILES	MIC90 (Staphylococcus aureus)	MIC90 (Yarrowia lipolytica)	MIC90 (Fusarium oxysporum)	MIC90 (Cryptococcus neoformans)	MIC90 (Candida albicans)	MIC90 (Escherichia coli)	MIC90 (Benjaminiella poitrasii)
CC(C)(C)[Si](C)(C)O[C@H]1CC[C@@]2(C)C(=CC[C@H]3[C@@H]4CC[C@H]([C@@](C)(O)c5nccs5)[C@@]4(C)CC[C@@H]32)C1	16 µg/mL (≈ 31 µM)	> 64 µg/mL	> 64 µg/mL	> 64 µg/mL	16 µg/mL (≈ 31 µM)	8 µg/mL (≈ 15.5 µM)	> 64 µg/mL
CC[C@H]1OC(=O)[C@H](C)[C@@H](O[C@H]2C[C@@](C)(OC)[C@@H](O)[C@H](C)O2)[C@H](C)[C@@H](O[C@@H]2O[C@H](C)C[C@H](N(C)C)[C@H]2O)[C@](C)(O)C[C@@H](C)C(=O)[C@H](C)[C@@H](O)[C@]1(C)O [ERYTHROMYCIN]	32 µg/mL (≈ 43.6 µM)	–	–	–	–	> 64 µg/mL	–
CC(=O)[C@H]1[C@H](c2ccccn2)C[C@H]2[C@@H]3CC=C4C[C@@H](O)CC[C@]4(C)[C@H]3CC[C@@]21C	8 µg/mL (≈ 20.3 µM)	16 µg/mL (≈ 40.7 µM)	64 µg/mL (≈ 163 µM)	> 64 µg/mL	32 µg/mL (≈ 81.3 µM)	16 µg/mL (≈ 40.7 µM)	32 µg/mL (≈ 81.3 µM)
CC(C)(C)[Si](C)(C)O[C@H]1CC[C@@]2(C)C(=CC[C@H]3[C@@H]4CC[C@H]([C@@](C)(O)c5ccccn5)[C@@]4(C)CC[C@@H]32)C1	8 µg/mL (≈ 15.7 µM)	8 µg/mL (≈ 15.7 µM)	8 µg/mL (≈ 15.7 µM)	32 µg/mL (≈ 62.8 µM)	16 µg/mL (≈ 31.4 µM)	16 µg/mL (≈ 31.4 µM)	16 µg/mL (≈ 31.4 µM)
CC(=O)O[C@H]1CC[C@@]2(C)[C@@H](CC[C@@H]3[C@@H]2CC[C@@]2(C)[C@H]3CC[C@@H]2[C@@](C)(O)c2ccccn2)C1	16 µg/mL (≈ 36.4 µM)	64 µg/mL (≈ 146 µM)	> 64 µg/mL	64 µg/mL (≈ 146 µM)	16 µg/mL (≈ 36.4 µM)	8 µg/mL (≈ 18.2 µM)	16 µg/mL (≈ 36.4 µM)
CC(=O)O[C@H]1CC[C@@]2(C)C(=CC[C@H]3[C@@H]4C[C@@H](c5ccccn5)[C@H](C(C)=O)[C@@]4(C)CC[C@@H]32)C1	16 µg/mL (≈ 36.7 µM)	> 64 µg/mL	32 µg/mL (≈ 73.5 µM)	32 µg/mL (≈ 73.5 µM)	> 64 µg/mL	16 µg/mL (≈ 36.7 µM)	64 µg/mL (≈ 147 µM)
C[C@]12CC[C@H]3[C@@H](CC=C4C[C@@H](O)CC[C@@]43C)[C@@H]1CC[C@@H]2[C@@](C)(O)c1ccccn1	8 µg/mL (≈ 20.2 µM)	32 µg/mL (≈ 80.9 µM)	16 µg/mL (≈ 40.4 µM)	64 µg/mL (≈ 162 µM)	> 64 µg/mL	16 µg/mL (≈ 40.4 µM)	32 µg/mL (≈ 80.9 µM)
C[C@]12CC[C@H](O)C[C@@H]1CC[C@@H]1[C@@H]2CC[C@@]2(C)[C@H]1CC[C@@H]2[C@@](C)(O)c1ccccn1	8 µg/mL (≈ 20.1 µM)	32 µg/mL (≈ 80.5 µM)	> 64 µg/mL	64 µg/mL (≈ 161 µM)	32 µg/mL (≈ 80.5 µM)	8 µg/mL (≈ 20.1 µM)	64 µg/mL (≈ 161 µM)
CC(=O)O[C@H]1CC[C@@]2(C)C(=CC[C@H]3[C@@H]4CC[C@H]([C@@](C)(O)c5nccs5)[C@@]4(C)CC[C@@H]32)C1	32 µg/mL (≈ 72.1 µM)	> 64 µg/mL	64 µg/mL (≈ 144 µM)	32 µg/mL (≈ 72.1 µM)	> 64 µg/mL	8 µg/mL (≈ 18 µM)	32 µg/mL (≈ 72.1 µM)
C[C@]12CC[C@H]3[C@@H](CC=C4C[C@@H](O)CC[C@@]43C)[C@@H]1CC[C@@H]2[C@@](C)(O)c1nccs1	8 µg/mL (≈ 19.9 µM)	32 µg/mL (≈ 79.7 µM)	64 µg/mL (≈ 159 µM)	32 µg/mL (≈ 79.7 µM)	16 µg/mL (≈ 39.8 µM)	8 µg/mL (≈ 19.9 µM)	32 µg/mL (≈ 79.7 µM)
CN(C)[C@@H]1C(O)=C(C(N)=O)C(=O)[C@@]2(O)C(O)=C3C(=O)c4c(O)cccc4[C@@](C)(O)[C@H]3C[C@@H]12 [TETRACYCLINE]	16 µg/mL (≈ 36 µM)	–	–	–	–	8 µg/mL (≈ 18 µM)	–
OC(Cn1cncn1)(Cn1cncn1)c1ccc(F)cc1F [FLUCONAZOLE]	–	64 µg/mL (≈ 209 µM)	8 µg/mL (≈ 26.1 µM)	32 µg/mL (≈ 104 µM)	32 µg/mL (≈ 104 µM)	–	32 µg/mL (≈ 104 µM)
CC(C)(C)[Si](C)(C)O[C@H]1CC[C@@]2(C)[C@@H](CC[C@@H]3[C@@H]2CC[C@@]2(C)[C@H]3CC[C@@H]2[C@@](C)(O)c2ccccn2)C1	16 µg/mL (≈ 31.3 µM)	> 64 µg/mL	32 µg/mL (≈ 62.5 µM)	16 µg/mL (≈ 31.3 µM)	32 µg/mL (≈ 62.5 µM)	8 µg/mL (≈ 15.6 µM)	64 µg/mL (≈ 125 µM)
CC(=O)[C@H]1[C@H](c2ccccn2)C[C@H]2[C@@H]3CC=C4C[C@@H](OS(C)(C)C(C)(C)C)CC[C@]4(C)[C@H]3CC[C@@]21C	16 µg/mL (≈ 31.3 µM)	8 µg/mL (≈ 15.6 µM)	64 µg/mL (≈ 125 µM)	> 64 µg/mL	32 µg/mL (≈ 62.5 µM)	16 µg/mL (≈ 31.3 µM)	64 µg/mL (≈ 125 µM)
CC(=O)O[C@H]1CC[C@@]2(C)C(=CC[C@H]3[C@@H]4CC[C@H]([C@@](C)(O)c5ccccn5)[C@@]4(C)CC[C@@H]32)C1	32 µg/mL (≈ 73.1 µM)	16 µg/mL (≈ 36.6 µM)	64 µg/mL (≈ 146 µM)	> 64 µg/mL	> 64 µg/mL	8 µg/mL (≈ 18.3 µM)	32 µg/mL (≈ 73.1 µM)
CC(C)(C)[Si](C)(C)O[C@H]1CC[C@@]2(C)[C@@H](CC[C@@H]3[C@@H]2CC[C@@]2(C)[C@H]3CC[C@@H]2[C@@](C)(O)c2nccs2)C1	16 µg/mL (≈ 30.9 µM)	64 µg/mL (≈ 124 µM)	64 µg/mL (≈ 124 µM)	> 64 µg/mL	> 64 µg/mL	16 µg/mL (≈ 30.9 µM)	32 µg/mL (≈ 61.8 µM)
C[C@@H]1[C@H](O)[C@@H](C)/C=C/C=C/C=C/C=C/C=C/C=C/C=C/[C@H](O[C@@H]2O[C@H](C)[C@@H](O)[C@H](N)[C@@H]2O)C[C@@H]2O[C@](O)(C[C@@H](O)C[C@@H](O)[C@H](O)CC[C@@H](O)C[C@@H](O)CC(=O)O[C@H]1C)C[C@H](O)[C@H]2C(=O)O [AMPHOTERICIN B]	–	16 µg/mL (≈ 17.3 µM)	16 µg/mL (≈ 17.3 µM)	16 µg/mL (≈ 17.3 µM)	2 µg/mL (≈ 2.16 µM)	–	16 µg/mL (≈ 17.3 µM)
C[C@]12CC[C@H](O)C[C@@H]1CC[C@@H]1[C@@H]2CC[C@@]2(C)[C@H]1CC[C@@H]2[C@@](C)(O)c1nccs1	32 µg/mL (≈ 79.3 µM)	> 64 µg/mL	> 64 µg/mL	32 µg/mL (≈ 79.3 µM)	64 µg/mL (≈ 159 µM)	16 µg/mL (≈ 39.6 µM)	> 64 µg/mL
CC(=O)O[C@H]1CC[C@@]2(C)[C@@H](CC[C@@H]3[C@@H]2CC[C@@]2(C)[C@H]3CC[C@@H]2[C@@](C)(O)c2nccs2)C1	16 µg/mL (≈ 35.9 µM)	> 64 µg/mL	16 µg/mL (≈ 35.9 µM)	64 µg/mL (≈ 144 µM)	8 µg/mL (≈ 18 µM)	16 µg/mL (≈ 35.9 µM)	16 µg/mL (≈ 35.9 µM)
